Read-outs that look alike come from different tables or passages of the source. Blank lines part the entries; values can stand above or below the compound they belong to.
Assays:
[1] = biological target: human TRPA1 (Homo sapiens, UniProt O75762); test: Calcium imaging of TRPA1 activation in human TRPA1 stably expressing HEK293 cells; conditions: for TRPA1 activation caused by antiseptics and antiseptic aids: phenoxyethanol 20 to 30 mM, IPBC 0.03 to 0.1 mM, triclosan 0.1 to 0.3 mM, benzyl alcohol 20 to 30 mM, FIG. 3
Chain of human TRPA1 (O75762 whole entry): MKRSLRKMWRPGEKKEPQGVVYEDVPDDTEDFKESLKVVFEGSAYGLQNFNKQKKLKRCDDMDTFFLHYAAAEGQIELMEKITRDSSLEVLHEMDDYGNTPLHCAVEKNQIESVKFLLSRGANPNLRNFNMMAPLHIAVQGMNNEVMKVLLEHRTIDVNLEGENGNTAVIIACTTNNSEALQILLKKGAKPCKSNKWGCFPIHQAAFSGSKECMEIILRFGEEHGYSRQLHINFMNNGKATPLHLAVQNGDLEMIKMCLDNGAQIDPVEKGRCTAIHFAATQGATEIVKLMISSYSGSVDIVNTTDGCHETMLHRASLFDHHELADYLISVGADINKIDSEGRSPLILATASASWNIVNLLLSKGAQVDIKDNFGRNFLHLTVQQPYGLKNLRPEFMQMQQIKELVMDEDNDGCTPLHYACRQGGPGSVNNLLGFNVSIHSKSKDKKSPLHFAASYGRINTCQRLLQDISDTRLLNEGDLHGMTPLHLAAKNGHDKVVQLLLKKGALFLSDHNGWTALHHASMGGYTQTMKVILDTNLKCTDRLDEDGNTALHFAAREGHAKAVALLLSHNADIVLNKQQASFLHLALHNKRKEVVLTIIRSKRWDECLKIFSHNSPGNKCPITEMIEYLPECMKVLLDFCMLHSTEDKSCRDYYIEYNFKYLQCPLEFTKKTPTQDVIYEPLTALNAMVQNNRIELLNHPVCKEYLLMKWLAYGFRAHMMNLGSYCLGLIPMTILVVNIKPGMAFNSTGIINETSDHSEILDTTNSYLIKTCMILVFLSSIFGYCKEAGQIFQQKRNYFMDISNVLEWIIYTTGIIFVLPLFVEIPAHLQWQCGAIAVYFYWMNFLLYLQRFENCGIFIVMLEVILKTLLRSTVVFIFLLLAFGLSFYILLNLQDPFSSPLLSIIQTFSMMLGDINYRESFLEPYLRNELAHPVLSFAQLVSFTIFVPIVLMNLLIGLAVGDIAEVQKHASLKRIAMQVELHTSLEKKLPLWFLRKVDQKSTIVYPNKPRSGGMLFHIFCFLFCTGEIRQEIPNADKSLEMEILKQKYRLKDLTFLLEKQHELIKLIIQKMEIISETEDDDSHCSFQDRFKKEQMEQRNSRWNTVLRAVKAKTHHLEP
Text: (1) Preparation of Human TRPA1 Stably Expressing Cell Line
The human TRPA1 gene of which the full length is inserted into pENTR223.1 was purchased from Open Biosystems. The TRPA1 gene was sub-cloned into an expression vector pcDNA3.2-V5/DEST (Invitrogen) and transfected into HEK293 cells using Lipofectamine 2000 (Invitrogen).
(3) Evaluation of the Inhibitory Effect on TRPA1 Activation Caused by AITC

[2] = test system: human skin; test: Sensory irritation property to antiseptic on human skin (discomfort score, sensitive women); type: in vivo; conditions: antiseptic solution (0.2% methylparaben + 0.35% phenoxyethanol) + 0.05% Compound 1 on face, versus antiseptic solution alone; maximum score, scale 0.0-3.0; FIG. 4
Method: (1) Selection of Test Subjects
To evaluate the skin sensory irritation, 22 women (age 20 to 59) having high sensitivity (1% lactic acid-sensitive, low current perception threshold and sensitive skin conscious with medical history of allergic disease) were selected as the subjects.
(2) Evaluation of Sensory Irritation Property to Antiseptic
After washing the face, the subjects entered a constant temperature-humidity room (room temperature 20° C., humidity about 50%) and were acclimated for 20 minutes, followed by applying 300 ill of distilled water heated to 37° C. in one side of the face from the cheek to the nose. 1, 2.5, 5 and 8 minutes after the application, the degree (intensity) of unpleasant sensation (pain) reported in accordance with the following unpleasant sensation reference values was notated.
0.0; None or pleasant sensation
0.5; Slight discomfort barely detectable
1.0; Mild discomfort, detectable sensation but tolerable
1.5; Mild to moderate discomfort
2.0; Moderate discomfort, unpleasant feeling but tolerable
2.5; Moderate to severe discomfort
3.0; Severe discomfort, intense unpleasant feeling
The distilled water was wiped off 8 minutes later, 300 μl of an antiseptic solution (0.2% methylparaben (MP)+0.35% phenoxyethanol (Phe) aqueous solution) was applied to the same part to notate the degrees of unpleasant sensation in the same manner. […]

[3] = Inhibitory effect on irritating odor (ammonia odor, panel evaluation); type: in vivo; conditions: for ammonia odor (irritating odor) score, average: 7-stage scale 0 to 6
Method: Ammonia was volatilized and saturated by putting a cotton ball impregnated with a 28% ammonia water (20 μl) in a 50 ml syringe for 12 hours or more. The intensity of ammonia odor (irritating odor) was evaluated using a 7-stage scale (0 to 6). Comparative evaluation was carried out without sniffing the test perfume.
(2) Evaluation scale 0; No irritating odor, 1; very faint, 2: faint, 3; easily noticeable, 4; strong, 5; very strong, 6; extremely strong

[4] = HEK293, read-out: Ratio for TRPA1 inhibition (%), 5.0 μM AITC, test material 100 μM
[5] = HEK293, read-out: Ratio for TRPA1 inhibition (%), 10 μM AITC, test material 100 μM

Compound: OCCCCc1ccccc1 [Comparative Compound 2, 4-phenyl-1-butanol, reference compound]
inhibition at 100 µM [1, 4]: 0% | inhibition at 100 µM [1, 5]: 0.8%

Compound: CC(CO)CC(C)c1ccccc1 (stereo not drawn) [Compound 1, 2-methyl-4-phenyl-1-pentanol]
discomfort (pain) score [2]: reduced | ammonia odor (irritating odor) score, average ([3]; 1 minute later): 2 | ammonia odor (irritating odor) score, average ([3]; 2 minutes later): 2 | ammonia odor (irritating odor) score, average ([3]; 5 minutes later): 2 | ammonia odor (irritating odor) score, average ([3]; 6 minutes later): 3 | ammonia odor (irritating odor) score, average ([3]; 10 minutes later): 3 | ammonia odor (irritating odor) score, average ([3]; Immediately after inhalation of test perfume, five panelists): 1 | time the ammonia odor reducing effect was maintained after the inhalation ([3]; after 1 minute sniffing of test perfume): 5 min

Compound: OCc1ccccc1 [benzyl alcohol, reference compound]
TRPA1 activation caused by antiseptics and antiseptic aids [1]: activate TRPA1 in a dose dependent manner

Compound: d-camphor [reference compound]
Ratio for TRPA1 inhibition (%) ([1]; 5.0 μM AITC, test material 100 μM): 1.8% | Ratio for TRPA1 inhibition (%) ([1]; 5.0 μM AITC, test material 500 μM): 27.8% | Ratio for TRPA1 inhibition (%) ([1]; 10 μM AITC, test material 100 μM): 0.0% | Ratio for TRPA1 inhibition (%) ([1]; 10 μM AITC, test material 500 μM): 15.1% | Ratio for TRPA1 inhibition (%) ([1]; 30 μM AITC, test material 0.01%): 6.9% | Ratio for TRPA1 inhibition (%) ([1]; 30 μM AITC, test material 0.03%): 89.7% | Ratio for TRPA1 inhibition (%) ([1]; stimulant Benzyl alcohol 20 mM, test material 0.5 mM): −0.89% | Ratio for TRPA1 inhibition (%) ([1]; stimulant IPBC 0.03 mM, test material 0.5 mM): 32.40% | Ratio for TRPA1 inhibition (%) ([1]; stimulant Phenoxyethanol 20 mM, test material 0.5 mM): 13.96% | Ratio for TRPA1 inhibition (%) ([1]; stimulant Triclosan 0.1 mM, test material 0.5 mM): 27.45%

Compound: CC(CO)CCc1ccccc1 (stereo not drawn) [Compound 11, 2-methyl-4-phenyl-1-butanol]
inhibition at 100 µM [1, 4]: 19.5% | inhibition at 100 µM [1, 5]: 3.9%

Compound: CC(CC(C)C(C)O)c1ccccc1 (stereo not drawn) [Compound 12, 3-methyl-5-phenyl-2-hexanol]
inhibition at 100 µM [1, 4]: 54.9% | inhibition at 100 µM [1, 5]: 27.1%

Compound: Oc1cc(Cl)ccc1Oc1ccc(Cl)cc1Cl [triclosan, reference compound]
TRPA1 activation caused by antiseptics and antiseptic aids [1]: activate TRPA1 in a dose dependent manner

Results, then the compound that gave them:

IC50 [1]: 2 µM | inhibition at 100 µM [1, 4]: 102% | inhibition at 100 µM [1, 5]: 101%
Compound: CC/C(=C/C(CC)c1ccccc1)CO (stereo not drawn) [Compound 8, (Z)-2-ethyl-4-phenyl-2-hexen-1-ol]

inhibition at 100 µM [1, 5]: 0%
Compound: CC(CCCO)c1ccccc1 (stereo not drawn) [Comparative Compound 1, 4-phenyl-1-pentanol, reference compound]

IC50 [1]: 3.4 µM | inhibition at 100 µM [1, 4]: 103% | inhibition at 100 µM [1, 5]: 102%
Compound: CC/C(=C\C(CC)c1ccccc1)CO (stereo not drawn) [Compound 7, (E)-2-ethyl-4-phenyl-2-hexen-1-ol]

inhibition at 100 µM [1, 4]: 83.4% | inhibition at 100 µM [1, 5]: 27.6%
Compound: CCC(C=C(C)CO)c1ccccc1 (stereo not drawn) [Compound 5, 2-methyl-4-phenyl-2-hexen-1-ol]

inhibition at 100 µM [1, 4]: 18.7% | inhibition at 100 µM [1, 5]: 9.7%
Compound: CCC(CC(C)CO)c1ccccc1 (stereo not drawn) [Compound 6, 2-methyl-4-phenyl-1-hexanol]

inhibition at 100 µM [1, 4]: 89.5% | inhibition at 100 µM [1, 5]: 51.7%
Compound: CC(CO)C(C)Cc1ccccc1 (stereo not drawn) [Compound 9, 2,3-dimethyl-4-phenyl-1-butanol]

IC50 [1]: 32.5 µM | inhibition at 100 µM [1, 4]: 92.9% | inhibition at 100 µM [1, 5]: 31.8%
Compound: C/C(=C\C(C)c1ccccc1)CO (stereo not drawn) [Compound 10, (E)-2-methyl-4-phenyl-2-penten-1-ol]

Reference: patent publication US9856196B2, “Agent for reduction of sensory irritation” (Kao Corporation, priority 2012, dated 2018)
